Experimental data taken from ChEMBL document CHEMBL1129673, “Antitumor activity of the R- and S-enantiomers of RS-2-[[hydroxy[[2-[ (octadecyloxy)methyl]tetrahydrofuran-2-yl]methoxy]-phosphinyl]oxy]-N, N,N,-trimethylethylaminium hydroxide inner salt” (1996).

Tests used:
YAC-1 [1] = assay: Antitumor activity against YAC-1 tumor cells at concentration 3 ug/mL and at 72 hr using direct cytotoxicity assay.; format: functional, Mus musculus
YAC-1 [2] = assay: Antitumor activity against YAC-1 tumor cells at concentration 1 ug/mL and at 72 hr using direct cytotoxicity assay.; format: functional, Mus musculus
P815 [3] = assay: Antitumor activity against P815 cells at concentration 3 ug/mL and at 72 hr using direct cytotoxicity assay.; format: functional, Mus musculus
L1210 [4] = assay: Antitumor activity against L1210 cells at concentration 1 ug/mL and at 72 hr using Activated Macrophage Cytotoxicity assay.; format: functional, Mus musculus
YAC-1 [5] = assay: Antitumor activity against YAC-1 tumor cells at concentration 3 ug/mL and at 72 hr using Activated Macrophage Cytotoxicity assay.; format: functional, Mus musculus
YAC-1 [6] = assay: Antitumor activity against YAC-1 tumor cells at concentration 5 ug/mL and at 72 hr using direct cytotoxicity assay.; format: functional, Mus musculus
L1210 [7] = assay: Antitumor activity against L1210 cells at concentration 1 ug/mL and at 72 hr using direct cytotoxicity assay.; format: functional, Mus musculus
P815 [8] = assay: Antitumor activity against P815 cells at concentration 1 ug/mL and at 72 hr using Activated Macrophage Cytotoxicity assay.; format: functional, Mus musculus
L1210 [9] = assay: Antitumor activity against L1210 cells at concentration 3 ug/mL and at 72 hr using direct cytotoxicity assay.; format: functional, Mus musculus
[10] = Antitumor activity against Abelson-8.1 cells at concentration 3 ug/mL and at 72 hr using direct cytotoxicity assay.; format: functional, Mus musculus
[11] = Antitumor activity against Abelson-8.1 cells at concentration 5 ug/mL and at 72 hr using Activated Macrophage Cytotoxicity assay.; format: functional, Mus musculus
L1210 [12] = assay: Antitumor activity against L1210 cells at concentration 3 ug/mL and at 72 hr using Activated Macrophage Cytotoxicity assay.; format: functional, Mus musculus
Mus musculus [13] = assay: Antitumor activity against mouse macrophages after day 7 at dose 0.25 mg/kg by peroral administration; format: functional; details: route oral
L1210 [14] = assay: Antitumor activity against L1210 cells at concentration 5 ug/mL and at 72 hr using direct cytotoxicity assay.; format: functional, Mus musculus
P815 [15] = assay: Antitumor activity against P815 cells at concentration 5 ug/mL and at 72 hr using direct cytotoxicity assay.; format: functional, Mus musculus
P815 [16] = assay: Antitumor activity against P815 cells at concentration 3 ug/mL and at 72 hr using Activated Macrophage Cytotoxicity assay.; format: functional, Mus musculus
P815 [17] = assay: Antitumor activity against P815 cells at concentration 5 ug/mL and at 72 hr using Activated Macrophage Cytotoxicity assay.; format: functional, Mus musculus
Mus musculus [18] = assay: Antitumor activity against mouse macrophages after day 28 at dose 0.25 mg/kg by peroral administration; format: functional; details: route oral
L1210 [19] = assay: Antitumor activity against L1210 cells at concentration 5 ug/mL and at 72 hr using Activated Macrophage Cytotoxicity assay.; format: functional, Mus musculus
P815 [20] = assay: Antitumor activity against P815 cells at concentration 1 ug/mL and at 72 hr using direct cytotoxicity assay.; format: functional, Mus musculus
[21] = Antitumor activity against Abelson-8.1 cells at concentration 1 ug/mL and at 72 hr using Activated Macrophage Cytotoxicity assay.; format: functional, Mus musculus
Mus musculus [22] = assay: Antitumor activity against mouse macrophages after day 14 at dose 0.25 mg/kg by peroral administration; format: functional; details: route oral
Mus musculus [23] = assay: Mouse survived after 28 days at 0.25 mg/kg; 2/10; format: functional
[24] = Antitumor activity against Abelson-8.1 cells at concentration 5 ug/mL and at 72 hr using direct cytotoxicity assay.; format: functional, Mus musculus
Mus musculus [25] = assay: Antitumor activity against mouse macrophages after day 21 at dose 0.25 mg/kg by peroral administration; format: functional; details: route oral
[26] = Antitumor activity against Abelson-8.1 cells at concentration 1 ug/mL and at 72 hr using direct cytotoxicity assay.; format: functional, Mus musculus
[27] = Antitumor activity against Abelson-8.1 cells at concentration 3 ug/mL and at 72 hr using Activated Macrophage Cytotoxicity assay.; format: functional, Mus musculus
YAC-1 [28] = assay: Antitumor activity against YAC-1 tumor cells at concentration 1 ug/mL and at 72 hr using Activated Macrophage Cytotoxicity assay.; format: functional, Mus musculus
YAC-1 [29] = assay: Antitumor activity against YAC-1 tumor cells at concentration 5 ug/mL and at 72 hr using Activated Macrophage Cytotoxicity assay.; format: functional, Mus musculus
L1210 [30] = assay: Antitumor activity against L1210 cells at concentration 3 ug/mL using Activated Macrophage Cytotoxicity assay.; format: functional, Mus musculus
Mus musculus [31] = assay: Mouse survived after 28 days at 0.25 mg/kg; 8/10; format: functional
Mus musculus [32] = assay: Antitumor activity against mouse macrophages after day 21 at dose 2.50 mg/kg by peroral administration; format: functional; details: dose 2.5 mg/kg; route oral
Mus musculus [33] = assay: Antitumor activity against mouse macrophages after day 14 at dose 2.50 mg/kg by peroral administration; format: functional; details: dose 2.5 mg/kg; route oral
Mus musculus [34] = assay: Antitumor activity against mouse macrophages after day 7 at dose 2.50 mg/kg by peroral administration; format: functional; details: dose 2.5 mg/kg; route oral
Mus musculus [35] = assay: Antitumor activity against mouse macrophages after day 28 at dose 2.50 mg/kg by peroral administration; format: functional; details: dose 2.5 mg/kg; route oral
Mus musculus [36] = assay: Mouse survived after 28 days at 2.5 mg/kg; 8/10; format: functional
Mus musculus [37] = assay: Mouse survived after 28 days at 2.5 mg/kg; 3/10; format: functional
Mus musculus [38] = assay: Mouse survived after 28 days at 2.5 mg/kg; 6/10; format: functional
Mus musculus [39] = assay: Mouse survived after 28 days at 0.25 mg/kg; 3/10; format: functional
L1210 [40] = assay: Antitumor activity against L1210 cells at concentration 5 ug/mL and at 72 hr and at 72 hr using Activated Macrophage Cytotoxicity assay.; format: functional, Mus musculus

Structure (SMILES): CCCCCCCCCCCCCCCCCCOCC1(COP(=O)([O-])OCC[N+](C)(C)C)CCCO1 (racemic; 8)
- Viable cells (YAC-1 [1]): 14%
- Viable cells (YAC-1 [2]): 92%
- Viable cells (P815 [3]): 20%
- Viable cells (L1210 [4]): 5.3%
- Viable cells (YAC-1 [5]): 1.6%
- Viable cells (YAC-1 [6]): 4.5%
- Viable cells (L1210 [7]): 84%
- Viable cells (P815 [8]): 3.1%
- Viable cells (L1210 [9]): 24%
- Viable cells [10]: 6.8%
- Viable cells [11]: 0.2%
- Viable cells (L1210 [12]): 1.4%
- Control (Mus musculus [13]): 90%
- Viable cells (L1210 [14]): 13%
- Viable cells (P815 [15]): 2.8%
- Viable cells (P815 [16]): 1.8%
- Viable cells (P815 [17]): 1.3%
- Control (Mus musculus [18]): 37%
- Viable cells (L1210 [19]): 1.1%
- Viable cells (P815 [20]): 68%
- Viable cells [21]: 0.5%
- Control (Mus musculus [22]): 52%
- Survivors (Mus musculus [23]): 2
- Viable cells [24]: 4.6%
- Control (Mus musculus [25]): 21%
- Viable cells [26]: 71%

Structure (SMILES): CCCCCCCCCCCCCCCCCCOCC1(COP(=O)([O-])OCC[N+](C)(C)C)CCCO1 (racemic; 9)
- Viable cells (YAC-1 [1]): 22%
- Viable cells (YAC-1 [2]): 60%
- Viable cells [27]: 0.3%
- Viable cells (P815 [3]): 7%
- Viable cells (YAC-1 [28]): 11%
- Viable cells (L1210 [4]): 3.4%
- Viable cells (YAC-1 [5]): 2.3%
- Viable cells (YAC-1 [6]): 9%
- Viable cells (L1210 [7]): 55%
- Viable cells (P815 [8]): 2.8%
- Viable cells (L1210 [9]): 7.7%
- Viable cells [10]: 2.1%
- Viable cells [11]: 0.4%
- Viable cells (YAC-1 [29]): 0.9%
- Control (Mus musculus [13]): 66%
- Viable cells (L1210 [14]): 3.2%
- Viable cells (P815 [15]): 2.6%
- Viable cells (P815 [16]): 1.1%
- Viable cells (P815 [17]): 0.3%
- Control (Mus musculus [18]): 11%
- Viable cells (L1210 [19]): 0.2%
- Viable cells (P815 [20]): 16%
- Viable cells [21]: 0.8%
- Control (Mus musculus [22]): 19%
- Viable cells [24]: 1.8%
- Viable cells (L1210 [30]): 0.6%
- Control (Mus musculus [25]): 6%
- Survivors (Mus musculus [31]): 8
- Viable cells [26]: 8.6%

Structure (SMILES): CCCCCCCCCCCCCCCCCCOC[C@]1(COP(=O)([O-])OCC[N+](C)(C)C)CCCO1
- Control (Mus musculus [32]): 8%
- Control (Mus musculus [33]): 28%
- Control (Mus musculus [34]): 70%
- Control (Mus musculus [35]): 13%
- Survivors (Mus musculus [36]): 8

Structure (SMILES): CCCCCCCCCCCCCCCCCCOC[C@@]1(COP(=O)([O-])OCC[N+](C)(C)C)CCCO1
- Control (Mus musculus [32]): 21%
- Control (Mus musculus [33]): 53%
- Control (Mus musculus [34]): 85%
- Control (Mus musculus [35]): 32%
- Survivors (Mus musculus [37]): 3

Structure (SMILES): CCCCCCCCCCCCCCCCCCOCC1(COP(=O)([O-])OCC[N+](C)(C)C)CCCO1 (racemic; 5)
- Viable cells (YAC-1 [1]): 26%
- Viable cells (YAC-1 [2]): 81%
- Viable cells [27]: 0.2%
- Viable cells (P815 [3]): 13%
- Viable cells (YAC-1 [28]): 16%
- Control (Mus musculus [32]): 14%
- Viable cells (L1210 [4]): 9.4%
- Viable cells (YAC-1 [5]): 2.5%
- Viable cells (YAC-1 [6]): 8.9%
- Viable cells (L1210 [7]): 100%
- Viable cells (P815 [8]): 3.4%
- Viable cells (L1210 [9]): 20%
- Viable cells [10]: 2.6%
- Viable cells [11]: 0.1%
- Control (Mus musculus [33]): 38%
- Viable cells (YAC-1 [29]): 1.2%
- Control (Mus musculus [13]): 82%
- Viable cells (L1210 [14]): 8.6%
- Viable cells (P815 [15]): 5.3%
- Viable cells (P815 [16]): 0.7%
- Survivors (Mus musculus [38]): 6
- Viable cells (P815 [17]): 0.6%
- Control (Mus musculus [18]): 32%
- Control (Mus musculus [34]): 76%
- Survivors (Mus musculus [39]): 3
- Viable cells (P815 [20]): 60%
- Viable cells (L1210 [40]): 0.9%
- Viable cells [21]: 0.4%
- Control (Mus musculus [22]): 47%
- Viable cells [24]: 2%
- Viable cells (L1210 [30]): 1.6%
- Control (Mus musculus [35]): 21%
- Control (Mus musculus [25]): 20%
- Viable cells [26]: 32%
